# Experimental data: paper PMC7655067, “Crystal structure-guided design of berberine-based novel chitinase inhibitors” (Journal of Enzyme Inhibition and Medicinal Chemistry, 2020)
# Where a name gives a salt, the structure may show the parent alone. Read-outs that look alike come from different tables or passages of the source.
# How the values were obtained:
# [1] = target: T1, SmChiB (Serratia marcescens, UniProt P11797); assay: biochemical; assay type: biochemical
# T1 construct: made in house; host or cells: Escherichia coli BL21 (DE3)
# T1 sequence (P11797 42-499): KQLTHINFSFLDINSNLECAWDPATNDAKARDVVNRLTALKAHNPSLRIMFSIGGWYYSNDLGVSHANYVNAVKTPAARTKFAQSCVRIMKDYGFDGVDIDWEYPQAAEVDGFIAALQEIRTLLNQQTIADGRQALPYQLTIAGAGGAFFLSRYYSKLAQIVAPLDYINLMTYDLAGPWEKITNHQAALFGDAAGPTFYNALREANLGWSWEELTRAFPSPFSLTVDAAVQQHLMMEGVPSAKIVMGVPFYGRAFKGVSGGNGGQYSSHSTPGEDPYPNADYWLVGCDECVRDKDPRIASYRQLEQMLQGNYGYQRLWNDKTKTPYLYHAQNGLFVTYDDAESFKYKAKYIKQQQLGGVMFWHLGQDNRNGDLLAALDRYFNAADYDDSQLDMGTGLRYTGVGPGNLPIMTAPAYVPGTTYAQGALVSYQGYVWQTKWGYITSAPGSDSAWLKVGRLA
# Procedure: (§1) ChiB from S. marcescens was expressed in Escherichia coli BL21 (DE3). The other GH18 chitinases including the catalytic domains of OfChtI from O. furnacalis, human HsCht and human hAMCase were expressed in P. pastoris GS115. All the proteins were purified by immobilised metal affinity chromatography (IMAC) as described previously. The purities of the target proteins were analysed by SDS-PAGE followed by Coomassie Brilliant Blue R-250 staining.
# (§2) The activity of GH18 chitinases were determined using MU-(GlcNAc)2 as a substrate. The reaction mixtures used for determining the inhibitor activity of compounds consisted of 100 μL of 20 nM enzyme, 4 μM MU-(GlcNAc)2, 1 or 10 μM inhibitors and 2% DMSO in the buffer (20 mM sodium phosphate, pH 6.0, for SmChiB, OfChtI and HsCht; 20 mM sodium citrate, pH 5.2, for hAMCase). The reaction in the absence of compounds was used as a positive control. After incubating at 30 °C for 25 min, an equal volume of 0.5 M sodium carbonate was added to the reaction mixtures to terminate the reaction, and the fluorescence produced by the released MU was quantified using a Varioskan Flash microplate reader (Thermo Fisher Scientific, Waltham, MA), with excitation and emission wavelengths of 360 and 450 nm, respectively. Experiments were performed in triplicate. […] The Ki values and types of inhibition were determined by linear fitting of the data in Dixon plots.
# [2] = target: T1, SmChiB; assay: Tryptophan fluorescence quenching, Kd by modified Stern-Volmer equation; assay type: binding
# Procedure: (§3) Tryptophan fluorescence (295 nm excitation) was measured at 25 °C from 300 to 400 nm with a Varioskan Flash microplate reader using excitation and emission band passes of 5 nm. Fluorescence quenching experiments were performed in a 200 μL mixture containing 1 μM protein in the buffer (20 mM sodium phosphate, pH 6.0, for SmChiB, OfChtI and HsCht; 20 mM sodium citrate, pH 5.2, for hAMCase), and by the successive addition of aliquots of compounds stock solution. Since the crystal structure confirmed that berberine binding to SmChiB in a 1:1 ratio, the dissociation constant Kd were then determined using the modified Stern-Volmer equation[35]^,[36]. […]
# [3] = target: T2, HsCht (Homo sapiens, UniProt Q13231); assay: Inhibitory activity assay with MU-(GlcNAc)2, Ki by Dixon plots; assay type: biochemical; conditions: pH 6.0
# T2 construct: including the catalytic domains of OfChtI from O. furnacalis, human HsCht and human hAMCase; made in house; host or cells: Pichia pastoris GS115
# T2 sequence (Q13231 22-388 limits assumed): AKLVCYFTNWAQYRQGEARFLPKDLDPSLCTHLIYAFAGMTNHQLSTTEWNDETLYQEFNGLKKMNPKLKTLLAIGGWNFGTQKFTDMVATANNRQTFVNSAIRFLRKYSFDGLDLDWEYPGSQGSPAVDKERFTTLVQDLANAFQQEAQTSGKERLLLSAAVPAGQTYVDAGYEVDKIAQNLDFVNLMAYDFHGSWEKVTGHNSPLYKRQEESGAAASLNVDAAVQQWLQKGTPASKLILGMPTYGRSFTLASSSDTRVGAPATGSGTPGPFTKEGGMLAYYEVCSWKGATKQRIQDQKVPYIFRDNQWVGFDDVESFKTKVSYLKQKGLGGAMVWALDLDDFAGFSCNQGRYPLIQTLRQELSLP
# Procedure: as §1, §2
# [4] = target: T3, hAMCase (Homo sapiens, UniProt Q9BZP6); assay: as above; assay type: biochemical; conditions: pH 5.2
# T3 construct: including the catalytic domains of OfChtI from O. furnacalis, human HsCht and human hAMCase; made in house; host or cells: Pichia pastoris GS115
# T3 sequence (Q9BZP6 22-390 limits assumed): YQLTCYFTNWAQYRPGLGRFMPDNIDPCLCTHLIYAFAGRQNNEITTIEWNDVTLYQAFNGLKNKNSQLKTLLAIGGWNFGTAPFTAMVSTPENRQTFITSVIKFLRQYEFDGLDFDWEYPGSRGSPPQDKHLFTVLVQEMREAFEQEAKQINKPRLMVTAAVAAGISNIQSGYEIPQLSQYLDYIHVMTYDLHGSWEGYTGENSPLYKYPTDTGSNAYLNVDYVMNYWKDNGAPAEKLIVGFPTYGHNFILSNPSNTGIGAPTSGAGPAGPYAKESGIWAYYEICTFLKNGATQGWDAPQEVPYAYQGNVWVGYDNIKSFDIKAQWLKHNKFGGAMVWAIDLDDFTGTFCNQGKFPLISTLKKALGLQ
# Procedure: as §1, §2
# [5] = target: T4, OfChtI (Ostrinia furnacalis, UniProt Q2V6H4); assay: as above; assay type: biochemical; conditions: for Ki: pH 6.0, Dixon plots
# T4 sequence (Q2V6H4 entry or part of it): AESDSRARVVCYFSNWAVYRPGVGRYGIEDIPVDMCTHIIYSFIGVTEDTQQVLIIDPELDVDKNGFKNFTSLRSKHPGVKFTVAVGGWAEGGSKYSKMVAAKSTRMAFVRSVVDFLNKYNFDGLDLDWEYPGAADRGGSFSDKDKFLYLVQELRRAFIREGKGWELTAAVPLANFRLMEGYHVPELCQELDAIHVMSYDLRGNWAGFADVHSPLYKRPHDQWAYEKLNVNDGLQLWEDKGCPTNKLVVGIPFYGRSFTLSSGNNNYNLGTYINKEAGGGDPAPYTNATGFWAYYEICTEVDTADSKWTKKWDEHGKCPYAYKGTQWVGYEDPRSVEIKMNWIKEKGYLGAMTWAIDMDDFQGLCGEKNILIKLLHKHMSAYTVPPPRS
# Procedure: as §1, §2
# [6] = target: T4, OfChtI; assay: Tryptophan fluorescence quenching, Kd by modified Stern-Volmer equation; assay type: binding
# Procedure: as §3
# [7] = target: T3, hAMCase; parameters: method as in PMID 30135205; conditions: cited from earlier work
# [8] = target: T2, HsCht; parameters: method as in PMID 30135205; conditions: cited from earlier work
# [9] = target: T2, HsCht; assay: Tryptophan fluorescence quenching, Kd by modified Stern-Volmer equation; assay type: binding; conditions: pH 6.0
# Procedure: (§4) Fluorescence quenching experiments were performed in a 200 μL mixture containing 1 μM protein in the buffer (20 mM sodium phosphate, pH 6.0, for SmChiB, OfChtI and HsCht; 20 mM sodium citrate, pH 5.2, for hAMCase), and by the successive addition of aliquots of compounds stock solution.
# [10] = target: T3, hAMCase; assay: as above; assay type: binding; conditions: pH 5.2
# Procedure: as §4
# [11] = target: T4, OfChtI; parameters: method as in PMID 30135205; conditions: cited from earlier work
# [12] = SmChiB, pH 6.0, Dixon plots, read-out: Ki
# [13] = SmChiB, tryptophan fluorescence quenching, pH 6.0, read-out: Kd
smiles,measurement,setting,value
COC(=O)CCC(=O)Oc1c(OC)ccc2cc3[n+](cc12)CCc1cc2c(cc1-3)OCO2 (as salt: chloride) [4a],melting point,,192 °C (dec.)
COC(=O)CCC(=O)Oc1c(OC)ccc2cc3[n+](cc12)CCc1cc2c(cc1-3)OCO2 [4a],Ki,[1]; [12],0.68 µM
same,Kd,[2]; [13],1.12 µM
same,Ki,[3],8.23 µM
same,Ki,[4],7.43 µM
same,Ki,[5],6.43 µM
COc1ccc2cc3[n+](cc2c1OC(=O)c1ccccc1)CCc1cc2c(cc1-3)OCO2 [4b],Ki,[1]; [12],2.36 µM
same,Kd,[2]; [13],2.99 µM
same,Ki,[3],11.4 µM
same,Ki,[4],4.62 µM
same,Ki,[5],7.28 µM
COc1ccc2cc3[n+](cc2c1OC(=O)c1ccc(F)nc1)CCc1cc2c(cc1-3)OCO2 [4c],Ki,[1]; [12],0.15 µM
same,Kd,[2]; [13],0.19 µM
same,Kd,"[6]; OfChtI, tryptophan fluorescence quenching, pH 6.0, read-out: Kd",2.58 µM
same,inhibitory activity increase compared to berberine,[5]; from Ki values,7.5 fold
same,Ki,[5],3.03 µM
"COc1ccc2cc3[n+](cc2c1OC)CCc1cc2c(cc1-3)OCO2 [Berberine, berberine]",Ki,[1],11.8 µM
same,type of inhibition,"[1]; SmChiB, Dixon plots",competitive inhibitor
same,Ki,[7],65 µM
same,type of inhibition,[7],competitive inhibitor
same,Ki,[8],19 µM
same,type of inhibition,[8],competitive inhibitor
same,Kd,[2],12 µM
same,Kd,[6],20.6 µM
same,Kd,[9],21.9 µM
same,Kd,[10],58 µM
same,Ki,[11],23 µM
same,type of inhibition,[11],competitive inhibitor
